Measured values reported in patent publication US20200010482A1, “INHIBITORS OF BETA SECRETASE” (Janssen Pharmaceutica NV, priority 2017, published 2020).

How the values were obtained:
BACE1 = biological target: T1, BACE1 (Homo sapiens, UniProt P56817); assay: BACE1 biochemical FRET based assay; conditions: recombinant BACE1 0.04 μg/ml, 20 μM substrate, 450 min, pH 5.0; for IC50: read-out: BIOCHEMICAL FRET BASED ASSAY pIC50 (converted)
T1 construct: recombinant BACE1 protein in a final concentration of 0.04 μg/ml
Description: (§1) This assay is a Fluorescence Resonance Energy Transfer Assay (FRET) based assay. The substrate for this assay is an APP derived 13 amino acids peptide that contains the ‘Swedish’ Lys-Met/Asn-Leu mutation of the amyloid precursor protein (APP) beta-secretase cleavage site. This substrate also contains two fluorophores: (7-methoxycoumarin-4-yl) acetic acid (Mca) is a fluorescent donor with excitation wavelength at 320 nm and emission at 405 nm and 2,4-Dinitrophenyl (Dnp) is a proprietary quencher acceptor. […] Upon cleavage by BACE1, the fluorophore Mca is separated from the quenching group Dnp, restoring the full fluorescence yield of the donor. The increase in fluorescence is linearly related to the rate of proteolysis.
Briefly in a 384-well format recombinant BACE1 protein in a final concentration of 0.04 μg/ml is incubated for 450 minutes at room temperature with 20 μM substrate in incubation buffer (50 mM Citrate buffer pH 5.0, 0.05% PEG) in the presence of compound or DMSO. Next the amount of proteolysis is directly measured by fluorescence measurement (excitation at 320 nm and emission at 405 nm) at different incubation times (0, 30, 60, 90, 120 and 450 min). For every experiment a time curve (every 30 min between 0 min and 120 min) is used to determine the time where we find the lowest basal signal of the high control. The signal at this time (Tx) is used to subtract from the signal at 450 min. Results are expressed in RFU, as difference between T450 and Tx.
(§2) A best-fit curve is fitted by a minimum sum of squares method to the plot of % Controlmin versus compound concentration. From this an IC50 value (inhibitory concentration causing 50% inhibition of activity) can be obtained. • LC=Median of the low control values=Low control: Reaction without enzyme • HC=Median of the High control values=High Control: Reaction with enzyme
(§3) % Effect=100−[(sample−LC)/(HC−LC)*100]
(§4) % Control=(sample/HC)*100
(§5) % Controlmin=(sample−LC)/(HC−LC)*100

[1] = test system: Abeta 1-42 produced and secreted by SKNBE2 cells expressing hAPP695; assay: Cellular αLisa assay in SKNBE2 cells, Abeta 1-42; format: cell-based, human; conditions: SKNBE2 cells expressing hAPP695, 18 hours incubation; for IC50: Homo sapiens, SKNBE2, 18 h, read-out: CELLULAR αLISA ASSAY IN SKNBE2 CELLS ABETA 42 PIC50 (converted)
Method: In two αLisa assays the levels of Abeta total and Abeta 1-42 produced and secreted into the medium of human neuroblastoma SKNBE2 cells are quantified. The assay is based on the human neuroblastoma SKNBE2 expressing the wild type Amyloid Precursor Protein (hAPP695). The compounds are diluted and added to these cells, incubated for 18 hours and then measurements of Abeta 1-42 and Abeta total are taken. Abeta total and Abeta 1-42 are measured by sandwich αLisa. αLisa is a sandwich assay using biotinylated antibody AbN/25 attached to streptavidin coated beads and antibody Ab4G8 or cAb42/26 conjugated acceptor beads for the detection of Abeta total and Abeta 1-42 respectively. In the presence of Abeta total or Abeta 1-42, the beads come into close proximity. The excitation of the donor beads provokes the release of singlet oxygen molecules that trigger a cascade of energy transfer in the acceptor beads, resulting in light emission. Light emission is measured after 1 hour incubation (excitation at […] and emission at 615 nm).
as §2, with “cells preincubated” for “Reaction”, “compound, without biotinylated Ab in the αLisa” for “enzyme”, “cells preincubated without compound” for “Reaction with enzyme”
as §3, §4, §5

BACE2 = biological target: T2, BACE2 (Homo sapiens, UniProt Q9Y5Z0); assay: BACE2 biochemical FRET based assay; conditions: recombinant BACE2 0.4 μg/ml, 10 μM substrate, 450 min, pH 5.0; for IC50: read-out: BIOCHEMICAL FRET BASED ASSAY pIC50 (converted)
T2 construct: recombinant BACE2 protein in a final concentration of 0.4 μg/ml
T2 sequence (Q9Y5Z0 63-518): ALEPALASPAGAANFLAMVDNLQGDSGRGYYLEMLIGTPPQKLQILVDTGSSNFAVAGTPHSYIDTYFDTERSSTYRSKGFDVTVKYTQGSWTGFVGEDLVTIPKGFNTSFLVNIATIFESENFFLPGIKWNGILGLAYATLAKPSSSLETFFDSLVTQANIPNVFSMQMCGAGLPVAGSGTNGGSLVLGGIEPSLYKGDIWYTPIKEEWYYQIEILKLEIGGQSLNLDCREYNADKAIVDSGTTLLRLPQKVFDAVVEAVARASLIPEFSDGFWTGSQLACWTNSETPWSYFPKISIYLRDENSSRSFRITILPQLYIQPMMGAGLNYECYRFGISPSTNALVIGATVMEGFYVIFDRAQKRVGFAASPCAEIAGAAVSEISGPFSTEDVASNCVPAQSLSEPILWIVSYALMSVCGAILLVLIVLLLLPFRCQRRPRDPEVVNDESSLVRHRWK
Description: as §1, with “assay” for “assay is an APP derived 13 amino acids peptide that”, “the beta-secretase,” for “BACE1,”
Briefly in a 384-well format recombinant BACE2 protein in a final concentration of 0.4 μg/ml is incubated for 450 minutes at room temperature with 10 μM substrate in incubation buffer (50 mM Citrate buffer pH 5.0, 0.05% PEG, no DMSO) in the absence or presence of compound. Next the amount of proteolysis is directly measured by fluorescence measurement at T=0 and T=450 (excitation at 320 nm and emission at 405 nm). Results are expressed in RFU (Relative Fluorescence Units), as difference between T450 and TO.
as §2, §3, §4, §5

T1 sequence (P56817 46-501): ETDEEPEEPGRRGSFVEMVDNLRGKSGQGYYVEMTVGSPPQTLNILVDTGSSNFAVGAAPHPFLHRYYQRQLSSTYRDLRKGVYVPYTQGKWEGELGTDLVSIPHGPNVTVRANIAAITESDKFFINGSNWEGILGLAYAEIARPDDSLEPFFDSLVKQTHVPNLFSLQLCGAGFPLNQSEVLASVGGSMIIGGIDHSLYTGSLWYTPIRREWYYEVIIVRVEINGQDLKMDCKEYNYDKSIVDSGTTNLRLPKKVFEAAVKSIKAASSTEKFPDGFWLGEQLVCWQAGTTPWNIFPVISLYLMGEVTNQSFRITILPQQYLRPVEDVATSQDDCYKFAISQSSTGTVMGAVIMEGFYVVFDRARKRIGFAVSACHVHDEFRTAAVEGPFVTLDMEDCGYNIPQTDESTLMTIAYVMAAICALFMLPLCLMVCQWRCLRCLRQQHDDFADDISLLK

| SMILES | IC50 (BACE1) [nM] | IC50 [1] [nM] | IC50 (BACE2) [nM] | BIOCHEMICAL FRET BASED ASSAY pIC50 (BACE1) | BIOCHEMICAL FRET BASED ASSAY pIC50 (BACE2) | CELLULAR αLISA ASSAY IN SKNBE2 CELLS ABETA 42 PIC50 [1] |
| --- | --- | --- | --- | --- | --- | --- |
| COc1ncc(-c2cnccc2C)c2c1C[C@]1(c3cc(-c4cncnc4)ccc3F)N=C(N)SC[C@@H]1C2 (racemic) [Compound 27] | 11.7 | 3.89 | 3980 | – | – | – |
| COc1ncc(-c2ccncc2C)c2c1CC1(c3ccc(F)cc3F)N=C(N)OCC1C2 (racemic) [Compound 32] | 50.1 | 7.24 | 1120 | – | – | – |
| COc1ncc(Br)c2c1C[C@]1(c3cc(O)ccc3F)N=C(N)SC[C@@H]1C2 [Compound 42] | 27.5 | 155 | 29.5 | – | – | – |
| COc1nccc2c1C[C@@]1(c3cc(-c4cncnc4)ccc3F)N=C(N)SC[C@H]1C2 [Compound 185] | > 10000 | > 8910 | > 10000 | – | – | – |
| COc1ncc(C2=CCOCC2)c2c1C[C@]1(c3ccc(F)cc3F)N=C(N)SC[C@@H]1C2 [Compound 46] | – | – | – | 8.64 | 8.44 | 9.21 |
| CCOc1nccc2c1CC1(c3ccc(F)cc3F)N=C(N)SCC1C2 (racemic) [Compound 4] | 166 | 186 | 331 | – | – | – |
| COc1ncc(Br)c2c1C[C@@]1(c3cc(O)ccc3F)N=C(N)SC[C@H]1C2 [Compound 189] | > 10000 | 6920 | > 10000 | – | – | – |
| COCC(C)NCc1ccc(F)c(C23Cc4c(ccnc4OC)CC2CSC(N)=N3)c1 (racemic) [Compound 13] | 70.8 | 1.45 | 39.8 | – | – | – |
| COc1nccc2c1C[C@]1(c3cc(-c4cncnc4)ccc3F)N=C(N)SC[C@@H]1C2 [Compound 38] | 15.5 | 3.55 | 229 | – | – | – |
| COc1nccc2c1C[C@]1(c3cc(OCC4CC4)ccc3F)N=C(N)SC[C@@H]1C2 [Compound 136] | 14.8 | 18.6 | 14.8 | – | – | – |
| COCC(=O)Nc1cc(C23Cc4c(ccnc4OC)CC2CSC(N)=N3)c(F)cc1F (single isomer, unassigned) [Compound 199] | 16.2 | – | 7.08 | – | – | 8.36 |
| COc1nccc2c1CC1(c3cc(-c4cncnc4)c(F)cc3F)N=C(N)SCC1C2 (racemic) [Compound 11] | 21.9 | 2.95 | 219 | – | – | – |

Now from value to compound, other results behind:

| IC50 (BACE1) [nM] | IC50 [1] [nM] | IC50 (BACE2) [nM] | BIOCHEMICAL FRET BASED ASSAY pIC50 (BACE1) | BIOCHEMICAL FRET BASED ASSAY pIC50 (BACE2) | SMILES | CELLULAR αLISA ASSAY IN SKNBE2 CELLS ABETA 42 PIC50 [1] |
| --- | --- | --- | --- | --- | --- | --- |
| > 10000 | 5370 | > 10000 | – | – | COc1nccc2c1C[C@@]1(c3cc(OCC4CC4)ccc3F)N=C(N)SC[C@H]1C2 [Compound 184] | – |
| 35.5 | 8.51 | 457 | – | – | COc1nccc2c1CC1(c3cc(-c4cncnc4)ccc3F)N=C(N)SCC1C2 (racemic) [Compound 10] | – |
| 209 | 13.8 | 2570 | – | – | COc1ccncc1-c1cnc(OC)c2c1C[C@H]1CSC(N)=N[C@@]1(c1ccc(F)cc1F)C2 [Compound 103] | – |
| 91.2 | 22.4 | 251 | – | – | COc1nccc2c1CC1(c3cc(-c4cncc(C#N)c4)ccc3F)N=C(N)SCC1C2 (racemic) [Compound 12] | – |
| 42.7 | 17 | 123 | – | – | COc1nccc2c1C[C@]1(c3cc(-c4cncc(C#N)c4)ccc3F)N=C(N)SC[C@@H]1C2 [Compound 37] | – |
| > 10000 | > 8910 | > 10000 | – | – | COc1nccc2c1C[C@@]1(c3cc(-c4cncc(C#N)c4)ccc3F)N=C(N)SC[C@H]1C2 [Compound 186] | – |
| 145 | 70.8 | 155 | – | – | COc1nccc2c1CC1(c3ccc(Cl)cc3F)N=C(N)SCC1C2 (racemic) [Compound 7] | – |
| 234 | 200 | 219 | – | – | COc1nccc2c1CC1(c3cc(Br)c(F)cc3F)N=C(N)SCC1C2 (racemic) [Compound 6] | – |
| 219 | 135 | 537 | – | – | COc1nccc2c1CC1(c3cc([N+](=O)[O-])c(F)cc3F)N=C(N)SCC1C2 (racemic) [Compound 8] | – |
| 7.76 | 1.32 | – | – | – | COc1ncc(-c2cncc(C)c2)c2c1C[C@]1(c3ccc(F)cc3F)N=C(N)SC[C@@H]1C2 [Compound 108] | – |
| 30.2 | 17.4 | 115 | – | – | COc1nccc2c1CC1(c3cc4c(cc3F)OCC(=O)N4)N=C(N)SCC1C2 (racemic) [Compound 15] | – |
| 25.1 | 42.7 | 479 | – | – | COc1ncc(-c2cnccc2C)c2c1CC1(c3cc(O)ccc3F)N=C(N)SCC1C2 (racemic) [Compound 26] | – |
| 1070 | – | 501 | – | – | COCC(=O)Nc1cc(C23Cc4c(ccnc4OC)CC2CSC(N)=N3)c(F)cc1F (single isomer, unassigned) [Compound 198] | 6.58 |
| 692 | 170 | 1150 | – | – | COc1nccc2c1C[C@]1(c3ccc(F)cc3F)N=C(N)OC[C@@H]1C2 (racemic) [Compound 30] | – |
| 69.2 | 8.91 | 178 | – | – | COc1ncc(-c2cccnc2)c2c1C[C@]1(c3ccc(F)cc3F)N=C(N)OC[C@@H]1C2 (racemic) [Compound 31] | – |
| 132 | 20.9 | 219 | – | – | COc1nccc2c1CC1(c3cc(C#N)ccc3F)N=C(N)SCC1C2 (racemic) [Compound 9] | – |
| 162 | 417 | 282 | – | – | COc1ncc(Br)c2c1CC1(c3cc(Br)c(F)cc3F)N=C(N)SCC1C2 (racemic) [Compound 19] | – |
